Measurements reported in article PMC4011867 (PLoS ONE, 2014).
Read-outs that look alike come from different tables or passages of the source.

What was measured:
Design in all cases: species or system Acyrthosiphon pisum
[1] = target: T1, A. pisum native nAChRs, [3H]-imidacloprid binding sites (alpha-Bgt-insensitive); assay: [3H]-IMI saturation binding, filtration; settings: 10 mM Tris-HCl pH 7.4, room temperature, 4 h; high-affinity site of two-site fit; labelled compound; read-out: [^3H]-IMI / Kd (nM) / assay level
T1 construct: gene Apisumα1
From the text: [3H]-IMI saturation binding, filtration on A. pisum native nAChRs, [3H]-imidacloprid binding sites (alpha-Bgt-insensitive)

[2] = target: T2, A. pisum native nAChRs, [125I]-alpha-bungarotoxin binding sites (alpha-Bgt-sensitive); settings: PBS pH 7.2, 0.1% BSA, room temperature, 4 h, low-affinity site, Cheng-Prusoff, table header prints nM, text and IC50 support µM
T2 construct: gene Apisumα1

[3] = target: T1, A. pisum native nAChRs, [3H]-imidacloprid binding sites (alpha-Bgt-insensitive); assay: [3H]-IMI competition binding, filtration; settings: 25 nM [3H]-IMI, 10 mM Tris-HCl pH 7.4, room temperature, 4 h, low-affinity site; for Ki: Cheng-Prusoff, read-out: [^3H]-IMI / % of high affinity / Ki; for IC50: read-out: [^3H]-IMI / Bmax (fmol/mg) / IC50
From the text: [3H]-IMI competition binding, filtration on A. pisum native nAChRs, [3H]-imidacloprid binding sites (alpha-Bgt-insensitive)

[4] = apparent Ki, possibly not strictly competitive
[5] = possibly not strictly competitive

With O=[N+]([O-])N=C1NCCN1Cc1ccc(Cl)nc1 [imidacloprid] as the molecule, how does the Kd [1] read?
Its Kd is 0.16 ± 0.04 nM.

What about the Ki ([2]; 0.6 nM [125I]-alpha-Bgt) of the same molecule?
The Ki was 14600 ± 1130 nM.

What about the Ki [3] of the same molecule?
Its Ki is 38.1 ± 6.88 nM.

And the IC50 [3]?
Its IC50 is 61 ± 11 nM.

Which results are given for CN1COCN(Cc2cnc(Cl)s2)C1=N[N+](=O)[O-] [thiamethoxam]?
Ki ([2]; 0.08 nM [125I]-alpha-Bgt): 1530 ± 650 nM; Ki [3, 4]: 1050 ± 63.1 nM; IC50 [3, 5]: 1680 ± 101 nM

How did the Ki ([2]; 0.08 nM [125I]-alpha-Bgt) turn out when CN/C(=N\[N+](=O)[O-])NCc1cnc(Cl)s1 [clothianidin] was run?
The Ki was 180 ± 50 nM.

And the Ki [3, 4]?
Its Ki is 127 ± 42.5 nM.

And the IC50 [3, 5]?
The IC50 was 203 ± 68 nM.
